The source made the active and inactive calls. No cut-off for these calls is given here.
How the values were obtained:
[1] = biological target: Cellular tumor antigen p53 (Mus musculus) (UniProt P02340); assay: Inhibition of p53-dependent transcriptional activity in tumor promotion-sensitive mouse JB6 Cl41 cells after 12 hrs by luciferase-based method; format: cell-based
HeLa [2] = assay: Cytotoxicity against human HeLa cells assessed as cell viability after 24 hrs by MTS assay; format: functional, cell-based
HeLa [3] = assay: Cytotoxicity against human HeLa cells assessed as cell viability after 48 hrs by MTS assay; format: functional, cell-based
[4] = Cytotoxicity against tumor promotion-sensitive mouse JB6 Cl41 cells assessed as cell viability after 48 hrs by MTS assay; format: cell-based; details: JB6 Cl41, 48 h
HeLa [5] = assay: Cytotoxicity against human HeLa cells assessed as inhibition of number of colonies formed in soft agar after 14 days by microscopic analysis; format: functional
HeLa [6] = assay: Ratio of IC50 to INCC50 for human HeLa cells; format: functional

Cellular tumor antigen p53 (Mus musculus), sequence (P02340 whole entry): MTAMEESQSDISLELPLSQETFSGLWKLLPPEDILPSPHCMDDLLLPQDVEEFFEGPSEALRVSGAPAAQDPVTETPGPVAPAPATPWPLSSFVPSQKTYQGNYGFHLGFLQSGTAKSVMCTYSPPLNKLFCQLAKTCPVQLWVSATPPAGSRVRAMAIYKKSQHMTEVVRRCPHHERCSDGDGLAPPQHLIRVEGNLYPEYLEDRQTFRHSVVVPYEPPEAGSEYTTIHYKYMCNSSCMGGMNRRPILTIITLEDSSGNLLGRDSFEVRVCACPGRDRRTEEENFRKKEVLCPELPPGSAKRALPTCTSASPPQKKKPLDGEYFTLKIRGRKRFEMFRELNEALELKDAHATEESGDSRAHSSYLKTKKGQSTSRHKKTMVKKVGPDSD

## O=C1C=C(O)C(=O)c2c(O)ccc(O)c21
[1]
  inhibition: Active
HeLa [2]
  IC50: 42.4 µM
HeLa [3]
  IC50: 37.9 µM
[4]
  IC50: 71.2 µM
HeLa [5]
  INCC50: 8.06 µM
HeLa [6]
  Ratio: 4.71

## O=C1C=C(O)c2cccc(O)c2C1=O
[1]
  inhibition: Active
HeLa [2]
  IC50: 124 µM
HeLa [3]
  IC50: 118 µM
[4]
  IC50: 193 µM
HeLa [5]
  INCC50: 35.51 µM
HeLa [6]
  Ratio: 3.33

## O=C1C=C(O)c2c(O)cccc2C1=O
[1]
  inhibition: Active
HeLa [2]
  IC50: 196 µM
HeLa [3]
  IC50: 187 µM
[4]
  IC50: > 200 µM
HeLa [5]
  INCC50: 109.37 µM
HeLa [6]
  Ratio: 1.71

## COC1=CC(=O)c2c(O)cccc2C1=O
[1]
  inhibition: Active
HeLa [2]
  IC50: 1.18 µM
HeLa [3]
  IC50: 1.29 µM
[4]
  IC50: 1.93 µM
HeLa [5]
  INCC50: 0.59 µM
HeLa [6]
  Ratio: 2.19

## O=C1C=CC(=O)c2c(O)cccc21 [JUGLONE]
[1]
  inhibition: Active
HeLa [2]
  IC50: 68.5 µM
HeLa [3]
  IC50: 65.5 µM
[4]
  IC50: 34.3 µM
HeLa [5]
  INCC50: 39.04 µM
HeLa [6]
  Ratio: 1.67
